Like-named read-outs stand apart in the source and are kept apart here.
Assays:
[1] = Critical micellar concentration (CMC) of saponins, ANS fluorimetric method; format: physicochemical; details: for CMC: QS saponins derived from Quillaja saponaria
Experimental: The critical micellar concentration (CMC) of saponin SO1861 derived from Saponaria officinalis (SO) and QS saponins derived from Quillaja saponaria (QS) (Table A5) was determined by the method of DeVendittis et al. (A fluorimetric method for the estimation of the critical micelle concentration of surfactants, Analytical Biochemistry, Volume 115, Issue 2, August 1981, Pages 278-286) as follows:
The emission spectrum of 8-Anilinonaphthalene-1-sulfonic acid (ANS) in either purified water (MQ) or PBS (Dulbecco's PBS+/+) was determined at dry weight concentrations of saponins ranging from […] to cover the range below and above the CMC. Above the CMC, the fluorescence yield of ANS increases and the wavelength of maximum emission decreases due to portioning of the fluorescent dye into micelles. Fluorescence yields were recorded on a Fluoroskan Ascent FL (Thermo Scientific) at an excitation wavelength of 355 nm, and an emission wavelength of 460 nm. 6 μg at a concentration of 75.86 μM of ANS were used per sample and measurement.

[2] = test system: endosomal escape of effector molecule; assay: Endosomal escape enhancing activity of saponins (cell-based assays, in vivo models); details: in vivo animal tumor models, LDL lowering therapy models, free or cleavably conjugated saponin
[3] = Release kinetic assay of saponin from linker at various pH; format: physicochemical; details: pH 4.0, 37° C.
Experimental: SO1861-SC-Mal (blocked) (saponin covalently coupled to the linker through an acid-labile semicarbazone (sc) bond) was tested for efficient pH sensitive release with a release kinetic assay and compared with release kinetics for SO1861-EMCH (blocked) (saponin covalently coupled to the linker through an acid-labile hydrazone bond). The assay was performed in buffers with pH 7.4, pH 6.0 pH, pH 5.0, pH 4.0 at 37° C. for 24 hours.

[4] = test system: A431 cells (EGFR++/HER2+/-/CD71+); assay: Cell viability / cell killing (MTS) assay on A431 cells; format: cell-based, human
Experimental: (§1) Cells were seeded in a 96 well plate at 5.000-10.000 c/w in 100 μL/well and incubated overnight at 37° C. The next day 10× concentrated treatment-mix samples were prepared in PBS, which contain antibody-conjugated SO1861 (i.e. a ‘binding molecule’ or an ‘endosomal escape enhancing conjugate’ of the invention) and targeted-toxin (i.e. a ‘binding molecule’) both at 10× final concentration. The media was removed from the cell culture plate and replaced by 180 μL culture media, followed by the addition of 20 μL treatment-mix/well. For control, 10× treatment-mix samples were prepared that contained the corresponding concentrations of only antibody-conjugated SO1861, only antibody, only SO1861, only targeted-toxin, or PBS without compound as vehicle control. After treatment the cells were incubated for 72 hr at 37° C. before the cell viability was determined by a MTS-assay, performed according to the manufacturer's instruction (CellTiter 96® AQueous One Solution Cell Proliferation Assay, Promega). Briefly, the MTS solution was diluted 20× in DMEM without phenol red (PAN-Biotech GmbH) supplemented with 10% FBS (PAN-Biotech GmbH). The cells were washed once with 200 μL PBS per well, after which 100 μL diluted MTS solution was added per well. The plate was incubated for approximately 20-30 minutes at 37° C. Subsequently, the optical density at 492 nm was measured on a Thermo Scientific Multiskan FC plate reader (Thermo Scientific). For quantification the background signal of ‘medium only’ wells was subtracted from all other wells, before the ratio of untreated/treated cells was calculated, by dividing the background corrected signal of untreated wells over the background corrected signal of the treated wells.
(§2) After treatment the cells were incubated for 72 hr at 37° C. before the cell viability was determined by a MTS-assay, performed according to the manufacturer's instruction (CellTiter 96@AQueous One Solution Cell Proliferation Assay, Promega). Briefly, the MTS solution was diluted 20× in DMEM without phenol red (PAN-Biotech GmbH) supplemented with 10% FBS. The cells were washed once with 200 μL/PBS well, after which 100 μL diluted MTS solution was added/well. The plate was incubated for approximately 20-30 minutes at 37° C. Subsequently, the OD at 492 nm was measured on a Thermo Scientific Multiskan FC plate reader (Thermo Scientific). For quantification the background signal of ‘medium only’ wells was subtracted from all other wells, before the cell viability percentage of treated/untreated cells was calculated, by dividing the background corrected signal of treated wells over the background corrected signal of the untreated wells (×100).

[5] = test system: A2058 cells (EGFR-/HER2+/-/CD71+); assay: Cell viability / cell killing (MTS) assay on A2058 cells; format: cell-based, human
Experimental: as §1, §2

[6] = test system: SK-BR-3 cells (HER2++/EGFR+/CD71+); assay: Cell killing (MTS) assay on SK-BR-3 cells; format: cell-based, human
Experimental: as §2

[7] = test system: MDA-MB-468 cells (HER2-/EGFR++/CD71+); assay: Cell killing (MTS) assay on MDA-MB-468 cells; format: cell-based, human
Experimental: as §2

EGFR (human) = EGFR (human) (UniProt P00533); assay: cell-based or functional assay

## CC(=O)O[C@@H]1[C@H](O[C@@H]2O[C@@H](C)[C@H](O)[C@@H](O)[C@H]2O)[C@@H](O[C@@H]2O[C@@H](C)[C@H](O[C@@H]3OC[C@@H](O)[C@H](O[C@@H]4OC[C@](O)(CO)[C@H]4O)[C@H]3O)[C@@H](O[C@@H]3O[C@H](CO)[C@@H](O)[C@H](O)[C@H]3O)[C@H]2O)[C@H](OC(=O)[C@]23CCC(C)(C)C[C@H]2C2=CC[C@@H]4[C@@]5(C)CC[C@H](O[C@@H]6O[C@H](C(=O)O)[C@@H](O)[C@H](O[C@@H]7OC[C@@H](O)[C@H](O)[C@H]7O)[C@H]6O[C@@H]6O[C@H](CO)[C@H](O)[C@H](O)[C@H]6O)[C@@](C)(C=O)[C@@H]5CC[C@@]4(C)[C@]2(C)C[C@H]3O)O[C@@H]1C [QS7, QS-7]
[1]
  CMC: 230 ± 25 µM

## CCC(C)C(CC(O)CC(=O)OC1C(C)OC(OC(=O)C23CCC(C)(C)CC2C2=CCC4C5(C)CCC(OC6OC(C(=O)O)C(O)C(OC7OCC(O)C(O)C7O)C6OC6OC(CO)C(O)C(O)C6O)C(C)(C=O)C5CCC4(C)C2(C)CC3O)C(OC2OC(C)C(OC3OCC(O)C(OC4OCC(O)(CO)C4O)C3O)C(OC3OC(CO)C(O)C(O)C3O)C2O)C1O)OC(=O)CC(O)CC(OC1OC(CO)C(O)C1O)C(C)CC (stereo not shown) [QS18, QS-18]
[1]
  CMC: 68 ± 7 µM

## C[C@@H]1O[C@@H](O[C@H]2[C@H](OC(=O)[C@]34CCC(C)(C)C[C@H]3C3=CC[C@@H]5[C@@]6(C)CC[C@H](O[C@H]7O[C@H](C(=O)O)[C@@H](O)[C@H](O[C@@H]8OC[C@@H](O)[C@H](O)[C@H]8O)[C@H]7O[C@@H]7O[C@H](CO)[C@H](O)[C@H](O)[C@H]7O)[C@@](C)(C=O)[C@@H]6CC[C@@]5(C)[C@]3(C)CC4)O[C@H](C)[C@H](O[C@@H]3O[C@H](C)[C@@H](O)[C@H](O)[C@H]3O)[C@@H]2O)[C@H](O)[C@H](O)[C@H]1O[C@@H]1OC[C@@H](O)[C@H](O[C@@H]2OC[C@@H](O)[C@H](O)[C@H]2O)[C@H]1O [SA1641]
[2]
  endosomal escape enhancing activity: activity was confirmed

## CC(=O)OC1C(C)OC(OC2C(C)OC(OC(=O)[C@]34CCC(C)(C)CC3C3=CCC5[C@@]6(C)CC[C@H](OC7OC(C(=O)O)C(O)C(OC8OCC(O)C(O)C8O)C7OC7OC(CO)C(O)C(O)C7O)[C@@](C)(C=O)C6CC[C@@]5(C)[C@]3(C)C[C@H]4O)C(OC3OC(C)C(OC4OCC(O)C(OC5OCC(O)C(O)C5O)C4O)C(O)C3O)C2O)C(O)C1OC1OCC(O)C(O)C1O (stereo partly shown) [SO1832]
[2]
  endosomal escape enhancing activity: activity was confirmed

## CC(=O)OC1C(C)OC(OC2C(C)OC(OC(=O)[C@]34CCC(C)(C)CC3C3=CCC5[C@@]6(C)CC[C@H](OC7OC(C(=O)O)C(O)C(OC8OCC(O)C(O)C8O)C7OC7OC(CO)C(O)C(O)C7O)[C@@](C)(C=NNC(=O)CCCCCN7C(=O)CC(SCCO)C7=O)C6CC[C@@]5(C)[C@]3(C)C[C@H]4O)C(OC3OC(C)C(OC4OCC(O)C(OC5OC(CO)C(O)C(O)C5O)C4O)C(O)C3O)C2O)C(O)C1OC1OCC(O)C(O)C1O (stereo partly shown) [SO1861-EMCH (blocked)]
[3]
  time to 50% release of saponin: 12 h

## CC(=O)OC1C(C)OC(OC2C(C)OC(OC(=O)[C@]34CCC(C)(C)CC3C3=CCC5[C@@]6(C)CC[C@H](OC7OC(C(=O)O)C(O)C(OC8OCC(O)C(O)C8O)C7OC7OC(CO)C(O)C(O)C7O)[C@@](C)(/C=N/NC(=O)CCCCCN7C(=O)C=CC7=O)C6CC[C@@]5(C)[C@]3(C)C[C@H]4O)C(OC3OC(C)C(OC4OCC(O)C(OC5OC(CO)C(O)C(O)C5O)C4O)C(O)C3O)C2O)C(O)C1OC1OCC(O)C(O)C1O (stereo partly shown) [SO1861-EMCH]
[4]; A431 (EGFR++), titrated on fixed 5 pM bivalent VHH-EGFR-dianthin, read-out: cell killing IC50
  IC50: 1500 nM
[4]; A431 (EGFR++), titrated on fixed 10 pM cetuximab-saporin, read-out: cell killing IC50
  IC50: 1000 nM
[4]; A431 (EGFR++), titrated on fixed 10 pM matuzumab-dianthin, read-out: cell killing IC50
  IC50: 1500 nM
[4]; A431 (EGFR++/CD71+), titrated on fixed 10 pM CD71mab-saporin, read-out: cell killing IC50
  IC50: 2000 nM
[5]; A2058 (EGFR-), titrated on fixed 5 pM bivalent VHH-EGFR-dianthin
  cell killing: not effective
[5]; A2058 (EGFR-), titrated on fixed 10 pM matuzumab-dianthin
  cell killing: not effective
[5]; A2058 (EGFR-/CD71+), titrated on fixed 10 pM CD71mab-saporin
  IC50: 1500 nM

## GE1741
[2]
  endosomal escape enhancing activity: activity was confirmed

## QS-17 [QS17]
[1]
  CMC: 70 ± 7 µM

## QS-21 [QS21]
[1]
  CMC: 75 ± 8 µM
[2]
  endosomal escape enhancing activity: activity was confirmed

## SO1700
[2]
  endosomal escape enhancing activity: activity was confirmed

## SO1730
[2]
  endosomal escape enhancing activity: activity was confirmed

## SO1772
[2]
  endosomal escape enhancing activity: activity was confirmed

## SO1861
[4]; A431 (CD71+), SO1861 titrated on fixed 50 pM VHHCD71-dianthin, read-out: cell killing IC50
  IC50: 200 nM
[4]; A431 (EGFR++), SO1861 titrated on fixed 50 pM VHHEGFR-dianthin, read-out: cell killing IC50
  IC50: 400 nM
[4]; A431 (HER2+/-), SO1861 titrated on fixed 50 pM VHH-HER2-dianthin
  cell killing IC50: no activity
[4]; A431, SO1861 alone, read-out: SO1861 tolerated concentration IC50
  IC50: 1000 nM
[5]; A2058 (CD71+), SO1861 titrated on fixed 50 pM VHHCD71-dianthin
  IC50: 200 nM
[5]; A2058 (EGFR-), SO1861 titrated on fixed 50 pM VHHEGFR-dianthin
  cell killing IC50: no activity
[5]; A2058 (HER2+/-), SO1861 titrated on fixed 50 pM VHH-HER2-dianthin
  IC50: 700 nM
[6]; SK-BR-3 (EGFR+), SO1861 titrated on fixed 50 pM VHH-EGFR-dianthin
  IC50: 700 nM
[6]; SK-BR-3 (HER2++/CD71+), SO1861 titrated on fixed 50 pM VHH-CD71-dianthin
  IC50: 200 nM
[6]; SK-BR-3 (HER2++/CD71+), SO1861 titrated on fixed 50 pM VHH-HER2-dianthin
  IC50: 200 nM
[7]; MDA-MB-468 (EGFR++), SO1861 titrated on fixed 50 pM VHH-EGFR-dianthin
  IC50: 300 nM
[7]; MDA-MB-468 (EGFR++), titrated on fixed 1 pM or 5 pM bivalentVHH-EGFR-dianthin
  IC50: 1000 nM
[7]; MDA-MB-468 (HER2-/CD71+), SO1861 titrated on fixed 50 pM VHH-CD71-dianthin
  IC50: 200 nM
[7]; MDA-MB-468 (HER2-/CD71+), SO1861 titrated on fixed 50 pM VHH-HER2-dianthin
  cell killing IC50: no enhanced activity compared to SO1861 alone
[1]; native SO1861 in PBS
  CMC value: 185 µM
[2]
  endosomal escape enhancing activity: activity was confirmed

## SO1904
[2]
  endosomal escape enhancing activity: activity was confirmed

## cetuximab-saporin (antibody)
EGFR (human)
  cell killing on MDA-MB-468 (EGFR++), alone: 300 pM

Reference: patent publication US20250295800A1, “CONJUGATE OF A SINGLE DOMAIN ANTIBODY, A SAPONIN AND AN EFFECTOR MOLECULE, PHARMACEUTICAL COMPOSITION COMPRISING THE SAME, THERAPEUTIC USE OF SAID PHARMACEUTICAL COMPOSITION” (SAPREME TECHNOLOGIES B.V., priority 2021, published 2025)
